Results as given in patent US4769483A, “Cycloalkyl-substituted 4-aminophenyl derivatives and process for their preparation” (Farmitalia Carlo Erba, S.p.A., priority 1985, dated 1988).

Legend:
[1] = molecular target: T1, human placental aromatase (Homo sapiens, UniProt P11511); assay: Inhibition of human placental aromatase in vitro (3H2O release from 4-[1β,2β-3H]androstene-3,17-dione); assay type: biochemical; settings: for IC50: microsomal fraction of human placental tissue, 50 nM 4-[3H]androstenedione, 100 μM NADPH, 0.05 mg microsomal proteins, 37° C., pH 7.5, 15 minutes; for Relative potency: versus aminoglutethimide (= 1 by definition)
T1 construct: the enzyme system was isolated from the microsomal fraction of human placental tissue; from tissue; host or cells: human placenta, microsomal fraction
T1 sequence (P11511 1-503): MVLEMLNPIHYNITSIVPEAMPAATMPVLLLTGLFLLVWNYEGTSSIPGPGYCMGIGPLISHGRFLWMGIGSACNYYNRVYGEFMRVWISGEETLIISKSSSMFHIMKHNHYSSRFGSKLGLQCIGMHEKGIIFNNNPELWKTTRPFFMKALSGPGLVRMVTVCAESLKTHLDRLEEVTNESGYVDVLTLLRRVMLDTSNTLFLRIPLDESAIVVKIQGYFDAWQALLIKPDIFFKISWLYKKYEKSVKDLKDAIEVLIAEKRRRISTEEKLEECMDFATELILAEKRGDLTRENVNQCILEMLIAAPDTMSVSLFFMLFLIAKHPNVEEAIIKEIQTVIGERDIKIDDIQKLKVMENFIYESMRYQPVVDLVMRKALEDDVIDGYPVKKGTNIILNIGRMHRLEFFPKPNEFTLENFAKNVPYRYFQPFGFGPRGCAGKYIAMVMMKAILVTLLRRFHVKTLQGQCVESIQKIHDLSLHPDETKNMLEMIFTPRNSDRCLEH
Protocol: The assay of the aromatase inhibition in vitro was carried out as follows: the enzyme system was isolated from the microsomal fraction of human placental tissue according to standard procedure. […] All incubations were carried out in a shaking water bath at 37° C. in air in 10 mM potassium phosphate buffer, pH 7.5, which contained 100 mM KCl, 1 mM EDTA and 1 mM dithiothreitol.
The experiments were carried out in 1 ml incubation volume containing 50 nM 4-[^3 H]androstenedione, various concentrations of the inhibitors, 100 μM NADPH and 0.05 mg of microsomal proteins. After 15 minutes of incubation the reaction was stopped by the addition of choroform (5 ml).
After centrifugation at 1500 ×g for 5 minutes aliquots (0.5 ml) were removed from the water phase for determination of ^3 H2 O formed.

[2] = test system: aromatase; settings: literature reports; cited from earlier work

| IC50 [1] | Relative potency [1] | SMILES | aromatase-inhibiting action (in words) [2] |
| --- | --- | --- | --- |
| 0.1 µM | 21.2 | C[C@@H](C(=O)OC1CCCCC1)c1ccc(N)cc1 [FCE 24328, cyclohexyl 2-(R)-2-(4'-aminophenyl)propionate] | – |
| 1.22 µM | 1.7 | Nc1ccc(C2CCCCC2)cc1 [4-cyclohexylaniline] | more or less selective aromatase-inhibiting action |
| – | – | CCC1(c2ccncc2)CCC(=O)NC1=O (centres unmarked) [4-pyridyl-3-ethyl-2,6-piperidinedione] | more or less selective aromatase-inhibiting action |
| 0.13 µM | 16.3 | C[C@@H](C(=O)NC1CCCCC1)c1ccc(N)cc1 [FCE 24786, N-cyclohexyl-2-(R)-2-(4'-aminophenyl)propanamide] | – |
